Drawing on ChEMBL document CHEMBL1159315, “Constituents of the bark and twigs of Artocarpus dadah with cyclooxygenase inhibitory activity” (J Nat Prod, 2002), this text covers IC50 and inhibition for 17 compounds.

Bounds are passed on as bounds.

For orientation: IC50 means the concentration at which inhibition is half-maximal. Low values mean greater potency in that assay, high ones weaker potency in that assay. What is called inhibition is the drop in the measured response relative to a control, in per cent. A lower inhibition goes with a weak effect.

In assay [1] the target is Prostaglandin G/H synthase 1 (Homo sapiens, UniProt P23219).
Sequence of Prostaglandin G/H synthase 1 (P23219 whole entry): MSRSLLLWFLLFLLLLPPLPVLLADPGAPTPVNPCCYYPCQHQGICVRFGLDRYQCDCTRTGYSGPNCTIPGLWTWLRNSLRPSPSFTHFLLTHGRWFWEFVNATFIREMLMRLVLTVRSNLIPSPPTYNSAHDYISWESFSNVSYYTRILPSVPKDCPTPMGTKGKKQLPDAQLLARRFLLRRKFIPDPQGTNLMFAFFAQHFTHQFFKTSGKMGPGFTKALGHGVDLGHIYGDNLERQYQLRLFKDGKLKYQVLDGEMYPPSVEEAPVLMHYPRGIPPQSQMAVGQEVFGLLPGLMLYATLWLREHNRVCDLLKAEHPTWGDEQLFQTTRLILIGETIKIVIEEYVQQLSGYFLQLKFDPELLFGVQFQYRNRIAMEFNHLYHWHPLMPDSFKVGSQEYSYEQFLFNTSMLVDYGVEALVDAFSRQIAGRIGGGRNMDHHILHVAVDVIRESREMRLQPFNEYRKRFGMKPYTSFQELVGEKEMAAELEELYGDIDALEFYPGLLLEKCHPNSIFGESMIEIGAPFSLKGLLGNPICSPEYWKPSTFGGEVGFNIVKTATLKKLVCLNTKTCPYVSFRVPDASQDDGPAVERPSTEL
Assay [2] deals with T1, Prostaglandin G/H synthase 2 (Homo sapiens, UniProt P35354).
T1 sequence (P35354 whole entry): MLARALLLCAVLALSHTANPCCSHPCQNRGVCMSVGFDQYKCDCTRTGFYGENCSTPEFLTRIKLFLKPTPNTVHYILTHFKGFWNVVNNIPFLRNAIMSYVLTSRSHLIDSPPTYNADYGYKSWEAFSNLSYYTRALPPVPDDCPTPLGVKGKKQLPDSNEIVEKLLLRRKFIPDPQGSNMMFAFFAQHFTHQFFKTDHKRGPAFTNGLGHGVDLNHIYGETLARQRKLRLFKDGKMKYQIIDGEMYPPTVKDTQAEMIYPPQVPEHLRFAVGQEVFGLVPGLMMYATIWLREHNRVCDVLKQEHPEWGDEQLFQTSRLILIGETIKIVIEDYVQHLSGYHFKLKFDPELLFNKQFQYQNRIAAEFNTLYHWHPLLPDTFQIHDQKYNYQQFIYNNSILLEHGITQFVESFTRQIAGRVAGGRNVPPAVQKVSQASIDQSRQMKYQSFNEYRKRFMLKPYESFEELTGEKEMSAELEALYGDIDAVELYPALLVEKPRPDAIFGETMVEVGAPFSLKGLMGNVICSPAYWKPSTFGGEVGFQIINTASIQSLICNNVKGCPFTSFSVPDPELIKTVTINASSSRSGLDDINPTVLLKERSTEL

The nature of assay [3]: Inhibition of DMBA-induced preneoplastic lesions in mouse mammary gland organ culture at 10 ug/mL. It counts as functional.

Consider `CC(C)(O)[C@H](O)Cc1cc(/C=C/c2cc(O)cc(O)c2)ccc1O`, for which the concentration for half-maximal inhibition (IC50) stood at 0.48 µM in assay [1] and 13.9 µM in assay [2].
As to `CC(C)=CCc1cc(/C=C/c2cc(O)cc(O)c2)ccc1O`, the 50% inhibitory concentration (IC50) came to 0.61 µM in assay [1] and 9.5 µM in assay [2]. In assay [3], this compound returned an inhibition at 10 µg/mL of 7.3%.
For the compound `CC(C)=CCc1cc(/C=C/c2cc(O)cc(O)c2)c(O)cc1O`, the IC50 in assay [1] came to 4.1 µM; in assay [2], 36.7 µM. Besides, in assay [3], 10 µg/mL produced 0% inhibition.
Taken in the same sequence, the figures for `C[C@@H]1O[C@@H](O[C@H]2Cc3c(O)cc(O)cc3O[C@@H]2c2ccc(O)cc2)[C@H](O)[C@H](O)[C@H]1O` were 8.3 µM, 19.7 µM and 0%.
Take `Oc1cc(O)c2c(c1)O[C@H](c1ccc(O)c(O)c1)[C@@H](O)C2` [CIANIDANOL]: the IC50 in assay [1] came out at 36.7 µM. In addition, the inhibition at 10 µg/mL in assay [3] is 50%.
As for `COc1cc(C(O)C(COC(=O)/C=C/c2ccc(O)cc2)Oc2c(OC)cc(/C=C/COC(=O)/C=C/c3ccc(O)cc3)cc2OC)ccc1O` (configuration not stated) [DADAHOL A], the IC50 in assay [1] and in assay [2] was above 143 µM in each case.
For `COc1cc(C(O)C(COC(=O)/C=C/c2ccc(O)cc2)Oc2ccc(/C=C/COC(=O)/C=C/c3ccc(O)cc3)cc2OC)ccc1O` (configuration not stated) [DADAHOL B], the half-inhibitory concentration (IC50) in assay [1] and in assay [2] was above 150 µM each time.
For the compound `O=C1c2c(O)cc(O)cc2O[C@H](c2ccc(O)cc2O)[C@H]1O` [DIHYDROMORIN], the values for the IC50 in assay [1] and in assay [2] were 67.1 µM and above 100 µM, respectively. This compound also returned an inhibition at 10 µg/mL in assay [3] of 81.5%.
Turning to `CC1OC(OC2C(=O)c3c(O)cc(O)cc3OC2c2ccc(O)cc2)C(O)C(O)C1O` (configuration not stated) [ENGELETIN], the concentration for half-maximal inhibition (IC50) in assay [1] and in assay [2] was above 230 µM in each case.
Consider `Oc1ccc([C@H]2Oc3cc(O)cc(O)c3C[C@H]2O)cc1` [EPIAFZELECHIN (2R,3R)(-)], for which, in assay [2], half-maximal inhibition (IC50) required 69.7 µM. Further, in assay [3], the inhibition at 10 µg/mL came to 81.5%.
As for `C/C(=C/Cc1c(O)ccc(C(=O)/C=C/c2ccc(O)cc2)c1O)COC(=O)/C=C/c1ccc(O)cc1` [GEMICHALCONE B], the concentration for half-maximal inhibition (IC50) is 14 µM in assay [1] and 38.4 µM in assay [2]. In assay [3], this compound yielded an inhibition at 10 µg/mL of 33.3%.
For `C/C(=C\Cc1c(O)ccc(C(=O)/C=C/c2ccc(O)cc2)c1O)COC(=O)/C=C/c1ccc(O)cc1` [ISOGEMICHALCONE B], the IC50 in assay [1] turned out to be 11.7 µM; in assay [2] it was 15 µM.
`Oc1cc(O)cc(-c2cc3ccc(O)cc3o2)c1` [MORACIN M]: the IC50 in assay [1] worked out at 0.5 µM; in assay [2], 22.3 µM. Moreover, in assay [3], testing at 10 µg/mL gave an inhibition of 33.3%.
For the compound `O=c1cc(-c2ccc(O)cc2O)oc2cc(O)cc(O)c12` [NORARTOCARPETIN], the IC50 was 14 µM in assay [1] and above 100 µM in assay [2]. Besides, testing at 10 µg/mL in assay [3] gave an inhibition of 85.2%.
Taken in the same sequence, the figures for `Oc1cc(O)cc(/C=C/c2ccc(O)cc2O)c1` [OXYRESVERATROL] were 1.4 µM, 109 µM and 33.3%.
`Oc1ccc(/C=C/c2cc(O)cc(O)c2)cc1` [RESVERATROL] registered an inhibition at 10 µg/mL in assay [3] of 87.5%.
`O=C1CC(c2ccc(O)cc2O)Oc2cc(O)cc(O)c21` (configuration not stated) [STEPPOGENIN]: the values for the 50% inhibitory concentration (IC50) in assay [1] and in assay [2] were 5.9 µM and 46.4 µM, respectively. For the same compound, the inhibition at 10 µg/mL in assay [3] is 66.7%.
